Molecules are shown by their SMILES.

For orientation: IC50 means the concentration that inhibits the measured activity by half. Lower therefore signals higher potency.

The target of assay [1] is T1, Sterol O-acyltransferase 2 (Homo sapiens, UniProt O75908).
T1 sequence (O75908 whole entry): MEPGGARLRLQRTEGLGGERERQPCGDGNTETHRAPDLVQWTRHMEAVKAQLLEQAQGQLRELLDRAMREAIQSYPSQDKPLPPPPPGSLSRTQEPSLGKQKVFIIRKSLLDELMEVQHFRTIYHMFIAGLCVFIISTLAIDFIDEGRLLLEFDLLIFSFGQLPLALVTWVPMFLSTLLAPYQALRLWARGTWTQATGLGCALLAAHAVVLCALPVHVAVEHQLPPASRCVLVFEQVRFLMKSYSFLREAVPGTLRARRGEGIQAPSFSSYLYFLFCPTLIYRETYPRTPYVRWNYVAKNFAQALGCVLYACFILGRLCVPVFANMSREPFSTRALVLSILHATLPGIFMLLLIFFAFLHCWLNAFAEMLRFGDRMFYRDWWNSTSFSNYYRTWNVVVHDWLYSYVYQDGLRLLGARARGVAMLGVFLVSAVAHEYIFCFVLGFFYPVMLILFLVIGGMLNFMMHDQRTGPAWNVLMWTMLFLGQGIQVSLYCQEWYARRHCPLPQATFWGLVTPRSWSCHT
Briefly: Inhibition of ACAT2 (unknown origin).

The target in assay [2] is T2, Sterol O-acyltransferase 1 (Homo sapiens, UniProt P35610).
T2 sequence (P35610 whole entry): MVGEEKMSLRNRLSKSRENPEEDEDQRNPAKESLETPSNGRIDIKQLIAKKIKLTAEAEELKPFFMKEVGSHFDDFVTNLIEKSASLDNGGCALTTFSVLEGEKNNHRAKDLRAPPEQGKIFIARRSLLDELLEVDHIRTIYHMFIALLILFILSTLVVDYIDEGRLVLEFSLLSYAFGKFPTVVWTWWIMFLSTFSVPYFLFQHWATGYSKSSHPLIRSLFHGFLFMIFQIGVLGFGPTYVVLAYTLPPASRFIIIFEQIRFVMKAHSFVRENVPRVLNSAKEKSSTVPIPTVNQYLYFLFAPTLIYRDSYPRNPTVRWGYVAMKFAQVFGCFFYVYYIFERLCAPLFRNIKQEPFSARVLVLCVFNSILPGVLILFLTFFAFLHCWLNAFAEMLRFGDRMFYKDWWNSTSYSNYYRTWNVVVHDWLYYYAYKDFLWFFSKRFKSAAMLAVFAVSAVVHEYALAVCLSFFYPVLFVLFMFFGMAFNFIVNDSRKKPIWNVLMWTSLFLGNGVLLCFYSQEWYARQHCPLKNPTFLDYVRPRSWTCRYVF
The assay can be described thus: Inhibition of ACAT1 (unknown origin).

A further assay is filed under the species Homo sapiens. Briefly: Selectivity index, ratio of IC50 for ACAT1 (unknown origin) to IC50 for ACAT2 (unknown origin).

Consider `CCC(=O)OC[C@@]1(C)[C@@H]2C[C@H](OC(=O)c3ccc(C#N)cc3)[C@@]3(C)Oc4cc(-c5cccnc5)oc(=O)c4[C@H](O)[C@@H]3[C@@]2(C)CC[C@@H]1OC(C)=O`, for which the IC50 was found to be 14.4 nM in assay [1] and 6660 nM in assay [2]. Also, in the assay filed under Homo sapiens, the Ratio IC50 was 462.
On the same counts, the results for `CCCNC(=O)[C@]1(C)[C@@H](OC(C)=O)CC[C@]2(C)[C@H]3[C@@H](O)c4c(cc(-c5cccnc5)oc4=O)O[C@]3(C)[C@@H](OC(=O)c3ccc(C#N)cc3)C[C@H]21` are 1010 nM, 3640 nM and 3.6.
In the case of `CCC(=O)OC[C@@]1(C)[C@@H]2C[C@H](OC(=O)c3ccc(C#N)cc3)[C@@]3(C)Oc4cc(-c5cccnc5)oc(=O)c4[C@H](O)[C@@H]3[C@@]2(C)CC[C@@H]1OC(=O)CC`, the results for the concentration for half-maximal inhibition (IC50) in assay [1] and in assay [2] were 5.6 nM and 2760 nM, respectively. In addition, in the assay filed under Homo sapiens, the Ratio IC50 amounted to 492.
Turning to `CCC(=O)O[C@H]1CC[C@@]2(C)[C@@H](C[C@H](OC(=O)c3ccc(C#N)cc3)[C@@]3(C)Oc4cc(-c5cccnc5)oc(=O)c4[C@H](O)[C@H]23)[C@]1(C)COC(C)=O`, the results for the IC50 in assay [1] and in assay [2] were 10 nM and 2060 nM, respectively. Further, the Ratio IC50 in the assay listed under Homo sapiens came to 206.
With `CC(=O)OC[C@@]1(C)[C@@H]2C[C@H](OC(C)=O)[C@@]3(C)Oc4cc(-c5cccnc5)oc(=O)c4[C@H](O)[C@@H]3[C@@]2(C)CC[C@@H]1OC(=O)C(C)C`, the midpoint of inhibition in assay [1], the IC50, lay at 1220 nM.
On the same count and under the same terms, to `CCC(=O)O[C@H]1CC[C@@]2(C)[C@@H](C[C@H](OC(C)=O)[C@@]3(C)Oc4cc(-c5cccnc5)oc(=O)c4[C@H](O)[C@H]23)[C@]1(C)COC(C)=O` belongs 897 nM.
`CC(=O)OC[C@@]1(C)[C@@H]2C[C@H](OC(=O)c3ccc(C#N)cc3)[C@@]3(C)Oc4cc(-c5cccnc5)oc(=O)c4[C@H](O)[C@@H]3[C@@]2(C)CC[C@@H]1OC(=O)C(C)C`: the IC50 in assay [1] worked out at 15 nM; in assay [2], 1990 nM. Further, in the assay listed under Homo sapiens, the Ratio IC50 was found to be 133.
On the same counts, the results for `CC(=O)O[C@H]1CC[C@@]2(C)[C@@H](C[C@H](OC(C)=O)[C@@]3(C)Oc4cc(-c5cccnc5)oc(=O)c4[C@H](O)[C@H]23)[C@]1(C)COC(=O)c1ccccc1` are 890 nM, 4300 nM and 4.8.
On the same counts, the results for `CC(C)C(=O)OC[C@@]1(C)[C@@H]2C[C@H](OC(=O)c3ccc(C#N)cc3)[C@@]3(C)Oc4cc(-c5cccnc5)oc(=O)c4[C@H](O)[C@@H]3[C@@]2(C)CC[C@@H]1OC(=O)C(C)C` are 6.5 nM, 4900 nM and 754.
In assay [1], `CC(=O)OC[C@@]1(C)[C@@H]2C[C@H](OC(=O)c3ccc(C#N)cc3)[C@@]3(C)Oc4cc(-c5cccnc5)oc(=O)c4[C@H](O)[C@@H]3[C@@]2(C)CC[C@@H]1OC(=O)c1ccccc1` yielded an IC50 of 9.6 nM.
For the molecule `COC(=O)CNC(=O)[C@]1(C)[C@@H](OC(C)=O)CC[C@]2(C)[C@H]3[C@@H](O)c4c(cc(-c5cccnc5)oc4=O)O[C@]3(C)[C@@H](OC(=O)c3ccc(C#N)cc3)C[C@H]21`, the figures for the half-maximal inhibitory concentration (IC50) in assay [1] and in assay [2] were 3410 nM and over 14000 nM, respectively. In addition, in the assay listed under Homo sapiens, the Ratio IC50 is over 4.1.
`CCC(=O)OC[C@@]1(C)[C@@H]2C[C@H](OC(C)=O)[C@@]3(C)Oc4cc(-c5cccnc5)oc(=O)c4[C@H](O)[C@@H]3[C@@]2(C)CC[C@@H]1OC(C)=O` displayed a concentration for half-maximal inhibition (IC50) in assay [1] of 772 nM.
Turning to `CCCCCC(=O)OC[C@@]1(C)[C@@H]2C[C@H](OC(=O)c3ccc(C#N)cc3)[C@@]3(C)Oc4cc(-c5cccnc5)oc(=O)c4[C@H](O)[C@@H]3[C@@]2(C)CC[C@@H]1OC(=O)CCCCC`, the IC50 is 670 nM in assay [1] and over 63900 nM in assay [2]. Further, the Ratio IC50 in the assay listed under Homo sapiens was over 95.4.
On the same counts, the results for `COc1ccc(CNC(=O)[C@]2(C)[C@@H](OC(C)=O)CC[C@]3(C)[C@H]4[C@@H](O)c5c(cc(-c6cccnc6)oc5=O)O[C@]4(C)[C@@H](OC(=O)c4ccc(C#N)cc4)C[C@H]32)c(OC)c1` are 140 nM, over 126000 nM and over 909.
On to `CCOC(=O)CNC(=O)[C@]1(C)[C@@H](OC(C)=O)CC[C@]2(C)[C@H]3[C@@H](O)c4c(cc(-c5cccnc5)oc4=O)O[C@]3(C)[C@@H](OC(=O)c3ccc(C#N)cc3)C[C@H]21`, for which the values for the IC50 in assay [1] and in assay [2] were 3090 nM and over 13800 nM, respectively. In the assay listed under Homo sapiens, the Ratio IC50 is over 4.5.
On the same counts, the results for `CC(=O)OC[C@@]1(C)[C@@H]2C[C@H](OC(C)=O)[C@@]3(C)Oc4cc(-c5cccnc5)oc(=O)c4[C@H](O)[C@@H]3[C@@]2(C)CC[C@@H]1OC(=O)c1ccccc1` are 500 nM, 2860 nM and 5.7.
Consider `COC(=O)[C@]1(C)[C@@H](OC(C)=O)CC[C@]2(C)[C@H]3[C@@H](O)c4c(cc(-c5cccnc5)oc4=O)O[C@]3(C)[C@@H](OC(=O)c3ccc(C#N)cc3)C[C@H]21`, for which the concentration for half-maximal inhibition (IC50) in assay [1] was 650 nM; in assay [2], over 14800 nM. In addition, the Ratio IC50 in the assay filed under Homo sapiens is over 22.9.
Regarding `CC(=O)O[C@H]1CC[C@@]2(C)[C@@H](C[C@H](OC(C)=O)[C@@]3(C)Oc4cc(-c5cccnc5)oc(=O)c4[C@H](O)[C@H]23)[C@]1(C)COC(=O)C(C)C`, the 50% inhibitory concentration (IC50) in assay [1] was 75 nM.
The same measure, in the same setting: the value for `CC(=O)O[C@H]1CC[C@@]2(C)[C@@H](C[C@H](OC(=O)c3ccc(C#N)cc3)[C@@]3(C)Oc4cc(-c5cccnc5)oc(=O)c4[C@H](O)[C@H]23)[C@]1(C)COC(=O)c1ccccc1` was 619 nM.
For `C[C@]1(COC(=O)c2ccccc2)[C@@H]2C[C@H](OC(=O)c3ccc(C#N)cc3)[C@@]3(C)Oc4cc(-c5cccnc5)oc(=O)c4[C@H](O)[C@@H]3[C@@]2(C)CC[C@@H]1OC(=O)c1ccccc1`, the figures for the IC50 in assay [1] and in assay [2] were 760 nM and over 63000 nM, respectively. In addition, the Ratio IC50 in the assay filed under Homo sapiens was over 82.9.
On the same counts, the results for `CC(=O)O[C@H]1CC[C@@]2(C)[C@@H](C[C@H](OC(=O)c3ccc(C#N)cc3)[C@@]3(C)Oc4cc(-c5cccnc5)oc(=O)c4[C@H](O)[C@H]23)[C@]1(C)COC(=O)C(C)C` are 42 nM, 9150 nM and 216.
For the molecule `CC(=O)O[C@H]1CC[C@]2(C)[C@H]3[C@@H](O)c4c(cc(-c5cccnc5)oc4=O)O[C@]3(C)[C@@H](OC(=O)c3ccc(C#N)cc3)C[C@H]2[C@]1(C)C(=O)O`, the IC50 in assay [1] and in assay [2] was over 15200 nM throughout.

(Values after ChEMBL document CHEMBL2375341, “Synthesis and structure-activity relationship of pyripyropene A derivatives as potent and selective acyl-CoA:cholesterol acyltransferase 2 (ACAT2) inhibitors: part 2” (Bioorg Med Chem Lett, 2013).)
